US20250092044A1, “Kinase Inhibitors” (Incyte Corporation, priority 2023, published 2025)

Experiments:
[1] = In Vivo Pharmacokinetics (mouse); conditions: plasma, PO
[2] = In Vivo Pharmacokinetics (cynomolgus monkey); design: species or system Cynomolgus monkeys; conditions: both sexes, plasma
Procedure: (§1) Test compounds were administered to male Sprague Dawley rats or male and female Cynomolgus monkeys intravenously or via oral gavage. For intravenous (IV) dosing, test compounds were dosed at 1 mg/kg using a formulation of 10% dimethylacetamide (DMAC), 10% propylene glycol (PG) in acidified saline via IV bolus for rat or 10 min IV infusion for monkey. For oral (PO) dosing, test compounds were dosed at 3.0 mg/kg using 5% DMAC in 0.5% methylcellulose in citrate buffer (PH˜2.5). Blood samples were collected at predose and various time points up to 24 hours postdose. All blood samples were collected using EDTA as the anticoagulant and centrifuged to obtain plasma samples. The plasma concentrations of test compounds were determined by LC-MS/MS methods. The measured plasma concentrations were used to calculate PK parameters by standard noncompartmental methods using Phoenix® WinNonlin software program (version 8.0, Pharsight Corporation) or similar software. In rats and monkeys, cassette dosing of test compounds were conducted to obtain preliminary PK parameters. In vivo pharmacokinetic experiments with male beagle dogs may be performed under the conditions described above.

[3] = molecular target: CYP3A4 (Homo sapiens (Human), UniProt P08684); assay: Time Dependent Inhibition (TDI) of CYP; format: in vitro ADME; conditions: for TDI 3A4: Kobs, 30 min pre-incubation with NADPH; for TDI 3A4 / Kobs: human liver microsomes, 10 μM; for CYP function remaining / Kobs: time dependent inhibition of CYPs; for CYP function remaining: after pre-incubation with NADPH
Chain of CYP3A4 (P08684 whole entry): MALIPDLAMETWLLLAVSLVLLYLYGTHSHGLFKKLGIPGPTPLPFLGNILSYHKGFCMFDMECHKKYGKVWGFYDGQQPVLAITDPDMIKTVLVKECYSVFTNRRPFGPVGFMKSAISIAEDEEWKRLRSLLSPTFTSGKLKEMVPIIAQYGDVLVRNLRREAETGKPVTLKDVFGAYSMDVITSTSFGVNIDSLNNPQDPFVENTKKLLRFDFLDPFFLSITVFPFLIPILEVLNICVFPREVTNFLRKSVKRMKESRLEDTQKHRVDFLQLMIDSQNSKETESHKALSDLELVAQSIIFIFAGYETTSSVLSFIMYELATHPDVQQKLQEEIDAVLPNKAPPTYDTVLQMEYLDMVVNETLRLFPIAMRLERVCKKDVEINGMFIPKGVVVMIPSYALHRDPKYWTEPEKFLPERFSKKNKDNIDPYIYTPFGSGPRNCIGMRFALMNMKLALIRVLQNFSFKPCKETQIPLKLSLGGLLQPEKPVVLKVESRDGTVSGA
From the text: Inhibition of P450 enzymes can be classified as either reversible or time-dependent inhibition (TDI). This in vitro assay is designed to detect an increase in CYP inhibition as a result of biotransformation and/or bioactivation (TDI). Potential mechanisms for this include the formation of a tight-binding, quasi-irreversible inhibitory metabolite complex or the inactivation of P450 enzymes by covalent adduct formation of metabolites. While this experiment employs a 10-fold dilution to diminish metabolite concentrations and therefore effects of reversible inhibition, it is possible (but not common) that a metabolite that is an extremely potent CYP inhibitor could result in a positive result.
The results are from a cocktail of CYP specific probe substrates at 4 times their Km concentrations for CYP2C9 (diclofenac), CYP2C19 (S-mephenytoin), CYP2D6 (bufuralol) and CYP3A4 (midazolam) using human liver microsomes (HLM). The HLMs were pre-incubated with test compound(s) at a concentration 10 μM for 30 min in the presence (+N) or absence (−N) of a NADPH regenerating system, diluted 10-fold, and incubated for 8 min in the presence of the substrate cocktail with the addition of a fresh aliquot of NADPH regenerating system. A calibration curve of metabolite standards was used to quantitatively measure the enzyme activity using LC-MS/MS. In addition, incubations with known time dependent inhibitors, tienilic aicd (CYP2C9), ticlopidine (CYP2C19), paroxetine (CYP2D6), and troleandomycin (CYP3A4), used as positive controls were pre-incubated 30 min with or without a NADPH regenerating system.
The percentage of control CYP2C9, CYP2C19, CYP2D6, and CYP3A4 activity remaining following pre-incubation of the compounds with NADPH is corrected for the corresponding control vehicle activity and then calculated based on 0 minutes as 100%. A linear regression plot of the natural log of % activity remaining versus time for each isozyme is used to calculate the slope. The −slope is equal to the rate of enzyme loss, or the Kobs. […] Examples 29-30 have Kobs from 0.005-0.02 indicating a medium to low potential for time dependent inhibition of CYPs corresponding to 70-90% CYP function remaining.

[4] = In Vivo Pharmacokinetics (rat); design: species or system Sprague Dawley rats; conditions: male, Sprague Dawley, plasma, PO 3.0 mg/kg
Procedure: as §1

[5] = PO 3.0 mg/kg, read-out: CYNO PO AUC

Structure (SMILES)	AUC [1]	AUC [2, 5]	TDI 3A4 [3]	CYP function remaining [3]	Kobs [3]	AUC [4]	AUC ([2]; PO, 1 mg/kg)
COc1nn(C)cc1-c1[nH]c2ncc3c(c2c1-c1ccc2c(cnn2C)c1)n(C1CCOCC1)c(=O)n3C [Comparative Example A, reference compound]	> 1.5 µM·h	≤ 0.5 µM·h	⋄⋄⋄⋄ (≥0.04)	about 30%	around 0.04		
[2H]C([2H])([2H])n1ncc2cc(-c3c(-c4cn(C)nc4OC)[nH]c4ncc5c(c34)n(C3CCOCC3)c(=O)n5C)ccc21 [Comparative Example B, reference compound]		≤ 0.5 µM·h	⋄⋄⋄⋄ (≥0.04)	about 30%	around 0.04	> 1.5 µM·h	
COc1nn(C)cc1-c1[nH]c2ncc3c(c2c1-c1ccc2c(cnn2C)c1)n([C@H]1CC[C@@H](CC#N)CC1)c(=O)n3C [E, reference compound]	> 1.5 µM·h						
[2H]C([2H])([2H])N(Cc1ccc(-c2[nH]c3ncc4c(c3c2-c2ccc3c(c2)CC(C)(C)O3)n([C@@H]2CC[C@@H](NC(=O)OC)C2)c(=O)n4C([2H])([2H])[2H])cc1)C([2H])([2H])[2H] [Example 25, Methyl ((1R,3R)-3-(7-(4-((bis(methyl-d3)amino)methyl)phenyl)-8-(2,2-dimethyl-2,3-dihydrobenzofuran-5-yl)-3-(methyl-d3)-2-oxo-3,6-dihydroimidazo[4,5-d]pyrrolo[2,3-b]pyridin-1(2H)-yl)cyclopentyl)carbamate]			⋄ (≤0.005)			0.5 to 1.5 µM·h	≤ 0.5 µM·h
[2H]C([2H])([2H])n1c(=O)n([C@@H]2CC[C@@H](NC(=O)OC)C2)c2c3c(-c4ccc5c(cnn5C(C)C)c4)c(-c4ccc(CN(C)C)cc4)[nH]c3ncc21 [Example 26, Methyl ((1R,3R)-3-(7-(4-((dimethylamino)methyl)phenyl)-8-(1-isopropyl-1H-indazol-5-yl)-3-(methyl-d3)-2-oxo-3,6-dihydroimidazo[4,5-d]pyrrolo[2,3-b]pyridin-1(2H)-yl)cyclopentyl)carbamate]		0.5 to 1.5 µM·h	⋄ (≤0.005)			≤ 0.5 µM·h	
[2H]C([2H])([2H])N(Cc1ccc(-c2[nH]c3ncc4c(c3c2-c2ccc(OCCOC)cc2)n([C@@H]2CC[C@@H](NC(=O)OC)C2)c(=O)n4C([2H])([2H])[2H])cc1)C([2H])([2H])[2H] [Example 27, Methyl ((1R,3R)-3-(7-(4-((bis(methyl-d3)amino)methyl)phenyl)-8-(4-(2-methoxyethoxy)phenyl)-3-(methyl-d3)-2-oxo-3,6-dihydroimidazo[4,5-d]pyrrolo[2,3-b]pyridin-1(2H)-yl)cyclopentyl)carbamate]		> 1.5 µM·h	⋄ (≤0.005)			0.5 to 1.5 µM·h	
COC(=O)N[C@@H]1CC[C@@H](n2c(=O)n(C)c3cnc4[nH]c(-c5ccc(CN(C)C)cc5)c(-c5ccc(F)cc5)c4c32)C1 [Example 28, Methyl ((1R,3R)-3-(7-(4-((dimethylamino)methyl)phenyl)-8-(4-fluorophenyl)-3-methyl-2-oxo-3,6-dihydroimidazo[4,5-d]pyrrolo[2,3-b]pyridin-1(2H)-yl)cyclopentyl)carbamate]			⋄ (≤0.005)			0.5 to 1.5 µM·h	
[2H]C([2H])([2H])N(Cc1ccc(-c2[nH]c3ncc4c(c3c2-c2ccc3c(c2)COC3(C)C)n([C@@H]2CC[C@@H](NC(=O)OC)C2)c(=O)n4C([2H])([2H])[2H])cc1)C([2H])([2H])[2H] [Example 29, Methyl ((1R,3R)-3-(7-(4-((bis(methyl-d3)amino)methyl)phenyl)-8-(1,1-dimethyl-1,3-dihydroisobenzofuran-5-yl)-3-(methyl-d3)-2-oxo-3,6-dihydroimidazo[4,5-d]pyrrolo[2,3-b]pyridin-1(2H)-yl)cyclopentyl)carbamate]			⋄⋄ (>0.005 to ≤0.02)			≤ 0.5 µM·h	
[2H]C([2H])([2H])n1c(=O)n([C@@H]2CC[C@@H](NC(=O)OC)C2)c2c3c(-c4ccc5c(c4)COC5(C)C)c(-c4ccc(C(=O)N(C)C)cc4)[nH]c3ncc21 [Example 30, methyl ((1R,3R)-3-(8-(1,1-dimethyl-1,3-dihydroisobenzofuran-5-yl)-7-(4-(dimethylcarbamoyl)phenyl)-3-(methyl-d3)-2-oxo-3,6-dihydroimidazo[4,5-d]pyrrolo[2,3-b]pyridin-1(2H)-yl)cyclopentyl)carbamate]			⋄⋄ (>0.005 to ≤0.02)			≤ 0.5 µM·h	
